Measured values published in patent publication US10106501B2, “Nuclear receptor modulators” (AbbVie Inc., priority 2015, dated 2018).

Target: T1, chimeric human RORγ-Gal4 receptor (Homo sapiens, UniProt P51449)
T1 sequence (P51449 269-508 limits assumed): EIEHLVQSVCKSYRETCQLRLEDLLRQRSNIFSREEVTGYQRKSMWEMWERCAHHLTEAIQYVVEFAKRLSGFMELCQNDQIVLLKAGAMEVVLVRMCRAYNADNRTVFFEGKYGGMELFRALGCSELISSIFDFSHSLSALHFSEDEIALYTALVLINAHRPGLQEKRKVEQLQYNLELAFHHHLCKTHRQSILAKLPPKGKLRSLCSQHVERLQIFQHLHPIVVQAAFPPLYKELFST
Experiment: transient transactivation assay (RORγ-Gal4 luciferase reporter)
Type: cell-based
Details: Cos-7 cells transfected with RORγ-Gal4 and 5Gal4 pGL3 TK Luc reporter; overnight incubation; T0901317 at 10^-5 M as reference; read-out: IC50

SMILES	IC50 [nM]
Cn1c(Cc2c(Cl)ccc(C(=O)N3CCC(CC(=O)O)CC3)c2Cl)cc2c(Cl)cc(Cl)cc21 [FA, 2-(1-(2,4-dichloro-3-((4,6-dichloro-1-methyl-1H-indol-2-yl)methyl)benzoyl)piperidin-4-yl)acetic acid]	< 100
Cn1c(Cc2c(Cl)ccc(C(=O)N3CCC(C(=O)O)CC3)c2Cl)cc2c(F)cc(C(F)(F)F)cc21 [FE-2]	< 100
C[C@@H]1CN(C(=O)c2ccc(Cl)c(Cc3cc4c(F)cc(C(F)(F)F)cc4n3C)c2Cl)CC[C@@H]1C(=O)O [FE-3]	< 100
C[C@H]1CN(C(=O)c2ccc(Cl)c(Cc3cc4c(F)cc(C(F)(F)F)cc4n3C)c2Cl)CC[C@H]1C(=O)O [FE-4]	< 100
Cc1cc(OC(F)F)cc2c1cc(Cc1c(Cl)ccc(C(=O)N3CCC(C(=O)O)C(C)C3)c1Cl)n2C (centres unmarked) [FF-1]	< 100
Cc1cc(OC(F)F)cc2c1cc(Cc1c(Cl)ccc(C(=O)N3CCC(C(=O)O)CC3)c1Cl)n2C [FF-2]	< 100
Cn1c(Cc2c(Cl)ccc(C(=O)N3CCC(C(=O)O)CC3)c2Cl)cc2ccc(OC(F)(F)F)cc21 [FI-1]	< 100
CC1CN(C(=O)c2ccc(Cl)c(Cc3cc4ccc(OC(F)(F)F)cc4n3C)c2Cl)CCC1C(=O)O (centres unmarked) [FI-2]	< 100
Cc1ccc(C(=O)N2CCOCC2)c(C)c1Cc1cc2c(C)cc(C(F)(F)F)cc2n1C [G, (3-((1,4-dimethyl-6-(trifluoromethyl)-1H-indol-2-yl)methyl)-2,4-dimethylphenyl)(morpholino)methanone]	< 100
Cc1cc(C(F)(F)F)cc2ccn(Cc3c(Cl)ccc(C(=O)N4CCC(CC(=O)O)CC4)c3Cl)c12 [J, 2-(1-(2,4-dichloro-3-((7-methyl-5-(trifluoromethyl)-1H-indol-1-yl)methyl)benzoyl)piperidin-4-yl)acetic acid]	< 100
Cc1ccc(C(=O)N2CCOCC2)c(C)c1C(O)c1cc2c(C)cc(C(F)(F)F)cc2n1C (centres unmarked) [K, (3-((1,4-dimethyl-6-(trifluoromethyl)-1H-indol-2-yl)(hydroxy)methyl)-2,4-dimethylphenyl)(morpholino)methanone]	100 to 500
Cn1c(Cc2c(Cl)ccc(C(=O)N3CCC(O)CC3)c2Cl)cc2ccc(C(F)(F)F)cc21 [L, (2,4-dichloro-3-((1-methyl-6-(trifluoromethyl)-1H-indol-2-yl)methyl)phenyl)(4-hydroxypiperidin-1-yl)methanone]	< 100
Cn1c(Cc2c(Cl)ccc(C(=O)N3CCC(C(=O)O)CC3)c2Cl)cc2ccc(C(F)(F)F)cc21 [M, 1-(2,4-dichloro-3-((1-methyl-6-(trifluoromethyl)-1H-indol-2-yl)methyl)benzoyl)piperidine-4-carboxylic acid]	100 to 500
Cn1c(Cc2c(Cl)ccc(C(=O)N3CCN(C4CC(C(=O)O)C4)CC3)c2Cl)cc2ccc(C(F)(F)F)cc21 (centres unmarked) [O, 3-(4-(2,4-dichloro-3-((1-methyl-6-(trifluoromethyl)-1H-indol-2-yl)methyl)benzoyl)piperazin-1-yl)cyclobutanecarboxylic acid]	100 to 500
